Entries after “also recorded” stand apart in the source; their conditions may differ.
Columns and labels:
[1] = system: osteoclast progenitor cells; test: Formation of TRAP-positive multinucleated cells from osteoclast progenitors; format: cell-based, mice; details: concentration not given, control 132
Experimental: In order to investigate the effects of the Compound 1 on differentiation and activity of osteoclasts, when differentiation of osteoclast progenitors was induced, the activity of Tartrate-resistant acid phosphatase (TRAP) as an osteoclastic marker enzyme was investigated, and, when differentiated osteoclasts were cultured on calcium phosphate-coated plates (OAAS, OCT Inc.), resorption activity (formation of resorption pits) were measured.
First, bone marrow cells were isolated, as follow. After sacrificing 7-9 week female mice by cervical dislocation, femur and tibia were excised aseptically while removing attached soft tissues. After cutting both ends of long bones, 1 ml of an enzyme solution, containing 0.1% collagenase (Gibco), 0.05% trypsin and 0.5 mM EDTA (Gibco), was injected to the bone marrow cavity at one end using a syringe with a 26-guage needle, and bone marrow was then collected. After shaking the recovered bone marrow for 30 min, bone marrow cells were collected, and cultured in α-minimum essential medium (α-MEM) supplemented with 10% FBS for 24 hrs. […]
Osteoclasts are derived from hematopoietic cells belonging to the monocyte/macrophage lineage originating in bone marrow. […] The formed TRAP-positive multinucleated cells containing three or more nuclei were counted as osteoclasts, and the counted cell number was compared to that of a control not treated with the Compound 1.

osteoclast formation = test: Inhibition rate of furan derivatives versus osteoclast formation (TRAP staining); format: cell-based, mice; details: TRAP-positive multinucleated cells, untreated control set as 100%
Experimental: First, bone marrow cells were isolated, as follow. After sacrificing 7-9 week female mice by cervical dislocation, femur and tibia were excised aseptically while removing attached soft tissues. After cutting both ends of long bones, 1 ml of an enzyme solution, containing 0.1% collagenase (Gibco), 0.05% trypsin and 0.5 mM EDTA (Gibco), was injected to the bone marrow cavity at one end using a syringe with a 26-guage needle, and bone marrow was then collected. After shaking the recovered bone marrow for 30 min, bone marrow cells were collected, and cultured in α-minimum essential medium (α-MEM) supplemented with 10% FBS for 24 hrs. Then, non-adherent cells were collected, which are osteoclast pregenitors, aliquotted onto culture plates at a density of 2×10^5 cells per well, and cultured for 8 days in α-MEM supplemented with 20 ng/ml of macrophage-colony stimulating factor (M-CSF, Peprotech, USA) and 30 ng/ml RANKL (Peprotech, USA). During the 8 days of culturing, the cells were treated with the Compound 1. Thereafter, osteoclast formation was investigated by fixing the cultured cells and then carrying out TRAP staining, as described in the following Experimental Example 2.2. In addition, resorption activity of osteoclasts was investigated by measuring the absorption area after removing osteoclasts in cultures in calcium phosphate-coated plates, as described in Experimental Example 2.3, below.
After cell culture, the adherent cells were washed with PBS, and TRAP staining was performed, as follows. After being fixed with citrate-acetate-formaldehyde for 5 min, the cells were incubated for 1 hr in acetate buffer (prewarmed at 37° C., pH 5.0) containing naphthol AS-BI phosphate, fast Garnet GBC and 7 mM tartrate buffer (pH 5.0). TRAP-positive multinucleated cells having 3 or more nuclei were considered as osteoclasts.
Osteoclast pregenitor cells were isolated, and their differentiation to mature osteoclasts was induced, according to the same method as in the Experimental Example 2-1, while treated with each of the furan derivatives of the present invention. According to the same method as in the Experimental Example 2-2, TRAP staining performed, and TRAP-positive multinucleated cells were counted. An inhibition rate of each furan derivative against osteoclast formation was expressed as percentage, wherein the number of stained cells in a control not treated the furan derivative was arbitrarily set as 100% (Tables 14 to 16).

Runx2 = Runx2 expression, p6xOSE2-Luc luciferase assay in C2C12 cells; format: cell-based, mouse; details: concentration not given
Experimental: In the following tests, three kinds of cell lines were used. The human osteosarcoma cell lines, MG-63 (ATCC No. CRL-1427) and HOS (ATCC No. CRL-1543), and mouse muscle C2C12 muscle cells (ATCC No. CRL-1772) were purchased from ATCC (American Type Culture Collection, Rockville, USA), and cultured in Dulbecco's modified Eagle's medium (DMEM) supplemented with 10% fetal bovine serum (FBS).
Primarily, transient transfection was carried out using a p6xOSE2-Luc vector, which was prepared by inserting into a pGL3 promoter vector six tandem copies of the OSE2 motif, the binding site of the transcriptional factor Runx2 that is a critical regulator for osteoblast differentiation. Runx2 expression levels were determined by luciferase assay. The test procedure will be described in more detail, as follows.
C2C12 cells were plated onto 6-well plates at a density of 1 (10^5 cells per well, and cultured for 24 hrs in a 5% CO2 incubator.
Then, the cells transiently transfected with the p6xOSE2-Luc vector using a transfection reagent, LipofectAmine, as follows. The plasmid DNA was reacted with the transfection reagent for 15 min to form p6xOSE2-Luc DNA:lipofectamine complexes. During this reaction, culture medium was removed from each well of the plates, the cells were washed with FBS-free DMEM, and 800 μl of FBS-free DMEM was added to each well. […]

[2] = system: ovariectomized white mice; test: Bone mineral densitometer test, preventive effect on osteoporosis; format: in vivo; details: for Change in BMD, %: test group, oral 10 mg per mouse after ovariectomy
Experimental: After ovariectomy, female white mice weighing about 250 g were orally administered with 10 mg of the Compound 1 per mice for four weeks. Bone mineral density (BMD) was measured before the ovariectomy and every week during the administration of the Compound 1, using a bone mineral densitometer, XCT 540 Research SA made in Germany.
After anesthetizing the mice being bred in cages by intraperitoneal injection of a mixture of Ketamine HCl (ketara 10 mg/kg) and 2% xylazine HCl (Roupun 0.15 ml/kg), BMD measurement was made at a voxel size of 0.1×0.1 mm^2 and threshold values of 280 mg/cm^2 for cancellous bone and 500 mg/cm^2 for compact bone. The analysis sites at the proximal tibias were determined by Scout scans (10 mm/sec), and BMD was measured at three slices at the determined sites by CT scans (7 mm/sec). BMD measurement was performed twice or more at the same site every week during four weeks.

## O=Cc1ccc(CO)o1 [Compound 1, 5-hydroxymethylfuran-2-carboxyaldehyde]
[1]
  Number of TRAP-positive multinucleated cells: 77
[1]; listed as compound prepared in Example 1
  Number of TRAP-positive multinucleated cells: remarkably reduced
Osteoclast formation; 0.1 μM
  Inhibition rate against osteoclast formation, %: 0%
Osteoclast formation; 1 μM
  Inhibition rate against osteoclast formation, %: 0%
Osteoclast formation; 10 μM
  Inhibition rate against osteoclast formation, %: 30%
Runx2
  Activity of Runx2 (in words): increase the activity of Runx2
[2]; Week 1, control −7.5
  Change in BMD, %: −2.5%
[2]; Week 2, control −11.6
  Change in BMD, %: −3.2%
[2]; Week 3, control −14.9
  Change in BMD, %: −1.8%
[2]; Week 4, control −18.6
  Change in BMD, %: 3.7%
[2]; oral 10 mg/day for four weeks after ovariectomy
  BMD compared to that before ovariectomy (in words): increase in BMD; also recorded: remarkably increased bone mineral density (BMD)

Source: patent US20080221205A1, “FURAN DERIVATIVES FOR PREVENTING AND CURING OSTEOPOROSIS AND PHARMACEUTICAL COMPOSITIONS CONTAINING THE SAME” (priority 2002, published 2008)
